Literature values as cited in US6511968B1, “Combination therapy for treating, preventing, or reducing the risks associated with acute coronary ischemic syndrome and related conditions” (Merck & Co., Inc., priority 1998, dated 2003).
Counter-ions that a name gives are not always drawn. Where a SMILES comes first, the peptide text is derived from it. Bridges are numbered along the chain shown (N, C = ends). [ ]: non-standard residue; d: D form. hArg = N=C(N)NCCCC[C@H](N)C(=O)O; Mpa = O=C(O)CCS

Key:
GP IIb/IIIa = GP IIb/IIIa (Homo sapiens, UniProt P05106+P08514); conditions: for selectivity for GPIIb/IIIa: administered intravenously
αvβ3 = αvβ3 (Homo sapiens, UniProt P05106+P06756)
[1] = prodrug
platelet aggregation = conditions: increasing concentrations added to platelet-rich plasma in vitro or incremental doses in vivo

Sequence of GP IIb/IIIa (P08514 32-887 limits assumed): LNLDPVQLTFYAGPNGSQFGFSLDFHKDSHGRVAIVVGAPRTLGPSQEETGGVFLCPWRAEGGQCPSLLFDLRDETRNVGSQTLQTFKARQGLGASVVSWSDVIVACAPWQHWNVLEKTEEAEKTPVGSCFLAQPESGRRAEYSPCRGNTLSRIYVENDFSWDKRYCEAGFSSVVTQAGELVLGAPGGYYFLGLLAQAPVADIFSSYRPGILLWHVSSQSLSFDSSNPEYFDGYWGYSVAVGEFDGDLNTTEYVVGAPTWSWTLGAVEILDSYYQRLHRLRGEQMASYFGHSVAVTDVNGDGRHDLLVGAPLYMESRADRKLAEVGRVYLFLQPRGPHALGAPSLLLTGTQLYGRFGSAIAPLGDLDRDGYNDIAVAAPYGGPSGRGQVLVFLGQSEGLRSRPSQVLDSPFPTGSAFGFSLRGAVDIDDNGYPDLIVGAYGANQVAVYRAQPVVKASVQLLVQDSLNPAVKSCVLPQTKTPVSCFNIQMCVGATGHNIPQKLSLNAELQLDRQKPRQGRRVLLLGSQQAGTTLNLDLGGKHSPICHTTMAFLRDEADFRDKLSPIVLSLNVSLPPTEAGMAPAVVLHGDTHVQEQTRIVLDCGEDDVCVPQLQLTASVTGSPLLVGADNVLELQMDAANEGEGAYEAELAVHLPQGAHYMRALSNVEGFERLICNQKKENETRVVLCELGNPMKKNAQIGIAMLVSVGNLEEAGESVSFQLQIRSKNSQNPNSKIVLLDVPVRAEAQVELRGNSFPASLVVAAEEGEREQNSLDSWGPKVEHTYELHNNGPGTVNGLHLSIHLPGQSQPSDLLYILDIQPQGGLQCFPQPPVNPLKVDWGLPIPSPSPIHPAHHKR
Sequence of GP IIb/IIIa (P08514 891-1039 partner limits assumed): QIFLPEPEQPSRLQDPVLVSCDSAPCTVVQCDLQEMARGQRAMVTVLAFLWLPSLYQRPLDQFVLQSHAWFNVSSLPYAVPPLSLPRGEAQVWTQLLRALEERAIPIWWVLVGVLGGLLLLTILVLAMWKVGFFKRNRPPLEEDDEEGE
Sequence of GP IIb/IIIa (P05106 27-788): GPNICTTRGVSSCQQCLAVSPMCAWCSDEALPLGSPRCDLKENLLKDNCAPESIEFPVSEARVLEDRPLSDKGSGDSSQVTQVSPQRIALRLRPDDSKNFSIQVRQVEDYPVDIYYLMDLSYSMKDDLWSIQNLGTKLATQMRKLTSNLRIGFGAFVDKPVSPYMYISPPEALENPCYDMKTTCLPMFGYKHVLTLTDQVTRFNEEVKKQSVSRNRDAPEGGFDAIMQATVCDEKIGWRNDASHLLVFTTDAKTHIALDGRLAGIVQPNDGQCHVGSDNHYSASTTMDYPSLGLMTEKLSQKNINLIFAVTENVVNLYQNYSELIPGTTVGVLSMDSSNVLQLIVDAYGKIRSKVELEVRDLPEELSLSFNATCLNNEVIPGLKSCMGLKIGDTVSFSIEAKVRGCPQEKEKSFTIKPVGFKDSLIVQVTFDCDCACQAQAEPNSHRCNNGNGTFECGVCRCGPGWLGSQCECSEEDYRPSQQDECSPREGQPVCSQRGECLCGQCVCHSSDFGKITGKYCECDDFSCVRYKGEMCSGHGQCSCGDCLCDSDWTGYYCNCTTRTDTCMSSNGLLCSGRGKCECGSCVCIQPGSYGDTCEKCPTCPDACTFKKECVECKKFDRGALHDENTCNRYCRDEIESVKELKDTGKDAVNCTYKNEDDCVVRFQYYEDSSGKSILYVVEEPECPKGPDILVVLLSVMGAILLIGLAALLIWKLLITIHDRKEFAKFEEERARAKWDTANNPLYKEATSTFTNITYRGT
Sequence of αvβ3 (P06756 31-889 limits assumed): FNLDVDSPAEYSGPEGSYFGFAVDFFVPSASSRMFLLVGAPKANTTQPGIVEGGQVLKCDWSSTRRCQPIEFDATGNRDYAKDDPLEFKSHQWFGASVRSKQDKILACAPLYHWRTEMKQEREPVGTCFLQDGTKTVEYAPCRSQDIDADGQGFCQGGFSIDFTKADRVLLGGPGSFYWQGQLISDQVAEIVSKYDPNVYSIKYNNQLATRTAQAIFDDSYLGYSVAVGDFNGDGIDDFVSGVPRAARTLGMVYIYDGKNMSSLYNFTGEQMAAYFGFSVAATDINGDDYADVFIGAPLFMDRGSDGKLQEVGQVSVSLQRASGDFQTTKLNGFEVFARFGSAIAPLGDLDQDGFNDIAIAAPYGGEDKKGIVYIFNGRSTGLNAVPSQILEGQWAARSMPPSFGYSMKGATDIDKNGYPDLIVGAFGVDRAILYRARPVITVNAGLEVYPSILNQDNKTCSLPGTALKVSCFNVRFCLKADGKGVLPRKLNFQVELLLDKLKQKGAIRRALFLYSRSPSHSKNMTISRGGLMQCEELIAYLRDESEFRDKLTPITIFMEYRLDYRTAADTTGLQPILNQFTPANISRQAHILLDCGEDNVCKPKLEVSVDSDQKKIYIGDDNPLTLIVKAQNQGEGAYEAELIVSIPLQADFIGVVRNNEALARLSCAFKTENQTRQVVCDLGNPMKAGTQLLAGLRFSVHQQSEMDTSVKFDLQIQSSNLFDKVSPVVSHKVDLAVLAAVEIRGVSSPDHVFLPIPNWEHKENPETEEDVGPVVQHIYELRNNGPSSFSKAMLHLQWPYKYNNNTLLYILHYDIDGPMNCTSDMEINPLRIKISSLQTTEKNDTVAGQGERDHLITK
Sequence of αvβ3 (P06756 891-1048 partner limits assumed): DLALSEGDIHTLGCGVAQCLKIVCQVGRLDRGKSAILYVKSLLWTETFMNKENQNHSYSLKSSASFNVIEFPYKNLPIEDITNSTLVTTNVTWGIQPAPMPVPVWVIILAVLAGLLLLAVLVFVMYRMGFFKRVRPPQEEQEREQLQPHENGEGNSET
Sequence of αvβ3 (P05106 27-788): as the sequence (P05106 27-788) above

For `N=C(N)NCCCC[C@@H]1NC(=O)CCSSC[C@@H](C(N)=O)NC(=O)[C@@H]2CCCN2C(=O)[C@H](Cc2c[nH]c3ccccc23)NC(=O)[C@H](CC(=O)O)NC(=O)CNC1=O` [Integrelin] ([Mpa][hArg]GDWPC-NH2; disulfide 1-7), the “inhibition of ligand binding to GP IIb/IIIa / receptor blockade” value (GP IIb/IIIa) is given as “inhibits ligand binding to GP IIb/IIIa” and the “effect on ligand binding to αvβ3 / receptor blockade” value (αvβ3) is given as “very little effect”.

In the case of `C#C[C@H](CC(=O)OCC)NC(=O)CCC(=O)Nc1ccc(C(=N)N)cc1` [SC54684, ethyl 3-[[4-[[4-(aminoiminomethyl)phenyl]amino]-1,4-dioxobutyl]amino]-4-pentynoate], the oral bioavailability [1] is given as “high oral bioavailability”.

For `N=C(N)c1ccc(C(=O)N[C@@H](Cc2ccc(O)cc2)C(=O)N2CCC(OCC(=O)O)CC2)cc1` [Ro 44-9883], the “selectivity for GPIIb/IIIa” value (GP IIb/IIIa) is given as “selective for GPIIb/IIIa”.

For `CCCCS(=O)(=O)N[C@@H](Cc1ccc(OCCCCC2CCNCC2)cc1)C(=O)O` [MK-383, 2-S-(n-Butylsulfonylamino)-3[4-piperidin-4-yl)butyloxyphenyl]propionic acid hydrochloride], the “selectivity for GPIIb/IIIa” value (GP IIb/IIIa) is listed as “selective for GPIIb/IIIa”.

B1: c7E3 Fab: c7E3 Fab form of the 7E3 antibody (antibody, chains of the INN, looked up, V domains shown)
VH: EVQLQQSGTVLARPGASVKMSCEASGYTFTNYWMHWVKQRPGQGLEWIGAIYPGNSDTSYIQKFKGKAKLTAVTSTTSVYMELSSLTNEDSAVYYCTLYDGYYVFAYWGQGTLVTVSA
VL: EIVLTQSPVTLSVTPGDSVSLSCRASRDISNNLHWFQQTSHESPRLLIKYASQSMSGIPSRFSGSGSGTDFTLSINSVETEDFGMYFCQQTNSWPYTFGGGTKLEIK
modifications: Fab
notes: c7E3 Fab form of the 7E3 antibody
In the case of B1, the platelet aggregation (platelet aggregation) is listed as “profoundly inhibited”.
